Assay results reported in patent US10670605B2, “Cysteine reactive probes and uses thereof” (The Scripps Research Institute, priority 2015, dated 2020).

Key:
Assay in all cases: Competitive isoTOP-ABPP in situ (fragment-treated cells)
Assay type in all cases: cell-based
[1] = target: T1, cysteines in MDA-MB-231 and Ramos cells (Homo sapiens, UniProt Q96HE7)
T1 sequence (Q96HE7 24-468): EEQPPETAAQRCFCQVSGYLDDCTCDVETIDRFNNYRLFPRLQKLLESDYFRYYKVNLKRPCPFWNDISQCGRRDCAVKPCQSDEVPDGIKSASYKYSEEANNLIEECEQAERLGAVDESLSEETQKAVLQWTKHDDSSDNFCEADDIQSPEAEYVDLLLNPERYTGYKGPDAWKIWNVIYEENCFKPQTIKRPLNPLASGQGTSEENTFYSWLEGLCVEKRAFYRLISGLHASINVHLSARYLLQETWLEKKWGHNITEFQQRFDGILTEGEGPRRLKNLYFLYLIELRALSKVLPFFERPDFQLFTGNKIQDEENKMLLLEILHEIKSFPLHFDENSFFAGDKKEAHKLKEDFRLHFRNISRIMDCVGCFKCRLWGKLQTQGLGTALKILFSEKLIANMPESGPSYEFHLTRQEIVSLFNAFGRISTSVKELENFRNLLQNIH

[2] = target: T2, cysteines in MDA-MB-231 and Ramos cells (Homo sapiens, UniProt Q9NYL9)
T2 sequence (Q9NYL9 1-352): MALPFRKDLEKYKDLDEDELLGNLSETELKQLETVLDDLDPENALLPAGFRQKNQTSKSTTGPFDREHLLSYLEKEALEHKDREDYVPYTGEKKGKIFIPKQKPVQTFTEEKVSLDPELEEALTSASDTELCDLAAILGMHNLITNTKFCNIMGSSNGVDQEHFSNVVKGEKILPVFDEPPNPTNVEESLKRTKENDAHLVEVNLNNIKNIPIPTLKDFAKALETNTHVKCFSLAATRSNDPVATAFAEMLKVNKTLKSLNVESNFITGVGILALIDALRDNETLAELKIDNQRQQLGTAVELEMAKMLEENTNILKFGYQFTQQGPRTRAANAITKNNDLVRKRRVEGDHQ

[3] = target: cysteines in MDA-MB-231 and Ramos cells (Homo sapiens, UniProt Q14997); settings: for isoTOP-ABPP ratio Q14997_C1840: 200 μM, insitu, 231
cysteines in MDA-MB-231 and Ramos cells (Homo sapiens, UniProt Q14997), sequence (Q14997 whole entry): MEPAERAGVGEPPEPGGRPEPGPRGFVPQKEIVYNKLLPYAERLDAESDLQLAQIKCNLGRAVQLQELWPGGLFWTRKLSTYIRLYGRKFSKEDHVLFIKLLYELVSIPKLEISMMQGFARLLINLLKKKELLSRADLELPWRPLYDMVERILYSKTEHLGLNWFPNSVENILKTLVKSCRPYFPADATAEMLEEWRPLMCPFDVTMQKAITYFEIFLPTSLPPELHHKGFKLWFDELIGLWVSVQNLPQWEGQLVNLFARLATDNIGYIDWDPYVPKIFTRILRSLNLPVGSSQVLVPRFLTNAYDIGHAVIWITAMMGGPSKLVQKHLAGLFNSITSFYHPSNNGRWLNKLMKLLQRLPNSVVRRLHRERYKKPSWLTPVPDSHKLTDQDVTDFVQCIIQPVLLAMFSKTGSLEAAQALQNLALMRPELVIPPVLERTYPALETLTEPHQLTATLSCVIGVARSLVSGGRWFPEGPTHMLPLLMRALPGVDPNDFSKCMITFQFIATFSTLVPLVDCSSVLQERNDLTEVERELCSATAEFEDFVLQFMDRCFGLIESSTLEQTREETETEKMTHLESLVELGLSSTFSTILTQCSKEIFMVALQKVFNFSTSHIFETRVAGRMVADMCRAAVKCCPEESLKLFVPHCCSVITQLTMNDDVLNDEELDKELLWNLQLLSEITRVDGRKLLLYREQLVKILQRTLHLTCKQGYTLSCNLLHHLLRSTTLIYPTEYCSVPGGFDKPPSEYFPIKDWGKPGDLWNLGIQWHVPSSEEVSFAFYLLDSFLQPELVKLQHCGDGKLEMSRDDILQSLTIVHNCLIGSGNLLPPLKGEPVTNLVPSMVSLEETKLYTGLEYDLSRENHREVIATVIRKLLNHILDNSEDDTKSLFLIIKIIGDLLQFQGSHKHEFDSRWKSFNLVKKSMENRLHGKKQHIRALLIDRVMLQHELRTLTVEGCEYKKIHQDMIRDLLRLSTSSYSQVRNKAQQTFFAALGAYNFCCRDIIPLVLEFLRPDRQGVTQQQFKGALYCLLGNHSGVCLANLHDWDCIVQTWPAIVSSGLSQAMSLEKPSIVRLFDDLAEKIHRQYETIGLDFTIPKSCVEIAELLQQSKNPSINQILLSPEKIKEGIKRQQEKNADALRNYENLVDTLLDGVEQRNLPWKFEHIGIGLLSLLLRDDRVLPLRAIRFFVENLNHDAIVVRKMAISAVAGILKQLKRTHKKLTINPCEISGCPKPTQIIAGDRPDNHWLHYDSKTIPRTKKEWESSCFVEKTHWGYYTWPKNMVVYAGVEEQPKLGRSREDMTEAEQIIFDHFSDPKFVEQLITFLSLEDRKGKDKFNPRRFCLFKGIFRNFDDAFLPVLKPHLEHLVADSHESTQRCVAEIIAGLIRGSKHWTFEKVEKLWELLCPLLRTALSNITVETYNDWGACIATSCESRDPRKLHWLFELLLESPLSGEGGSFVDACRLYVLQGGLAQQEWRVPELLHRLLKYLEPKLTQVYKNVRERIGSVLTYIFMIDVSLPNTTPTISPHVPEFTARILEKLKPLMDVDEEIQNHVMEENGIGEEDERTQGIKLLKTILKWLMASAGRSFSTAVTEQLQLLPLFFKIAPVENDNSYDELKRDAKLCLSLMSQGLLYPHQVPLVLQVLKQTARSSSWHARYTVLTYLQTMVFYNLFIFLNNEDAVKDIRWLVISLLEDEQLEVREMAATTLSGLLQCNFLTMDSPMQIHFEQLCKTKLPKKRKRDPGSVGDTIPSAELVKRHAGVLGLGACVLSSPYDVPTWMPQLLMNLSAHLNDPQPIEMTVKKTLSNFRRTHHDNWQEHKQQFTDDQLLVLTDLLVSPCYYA

[4] = target: cysteines in MDA-MB-231 and Ramos cells (Homo sapiens, UniProt P04406)
cysteines in MDA-MB-231 and Ramos cells (Homo sapiens, UniProt P04406), sequence (P04406 whole entry): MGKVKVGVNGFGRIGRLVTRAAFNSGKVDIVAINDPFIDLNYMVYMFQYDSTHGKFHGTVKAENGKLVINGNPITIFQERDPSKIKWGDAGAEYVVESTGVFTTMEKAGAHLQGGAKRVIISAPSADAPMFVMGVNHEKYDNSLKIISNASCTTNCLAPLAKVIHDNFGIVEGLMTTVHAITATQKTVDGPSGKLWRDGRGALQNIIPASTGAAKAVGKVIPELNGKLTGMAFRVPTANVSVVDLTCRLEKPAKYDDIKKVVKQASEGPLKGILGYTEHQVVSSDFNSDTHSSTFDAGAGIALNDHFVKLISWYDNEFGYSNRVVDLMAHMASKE

[5] = target: cysteines in MDA-MB-231 and Ramos cells (Homo sapiens, UniProt O00299)
[6] = target: T3, cysteines in MDA-MB-231 and Ramos cells (Homo sapiens, UniProt Q9BTA9); settings: for isoTOP-ABPP ratio Q9BTA9_C553: 200 μM, insitu
T3 sequence (Q9BTA9 1-647): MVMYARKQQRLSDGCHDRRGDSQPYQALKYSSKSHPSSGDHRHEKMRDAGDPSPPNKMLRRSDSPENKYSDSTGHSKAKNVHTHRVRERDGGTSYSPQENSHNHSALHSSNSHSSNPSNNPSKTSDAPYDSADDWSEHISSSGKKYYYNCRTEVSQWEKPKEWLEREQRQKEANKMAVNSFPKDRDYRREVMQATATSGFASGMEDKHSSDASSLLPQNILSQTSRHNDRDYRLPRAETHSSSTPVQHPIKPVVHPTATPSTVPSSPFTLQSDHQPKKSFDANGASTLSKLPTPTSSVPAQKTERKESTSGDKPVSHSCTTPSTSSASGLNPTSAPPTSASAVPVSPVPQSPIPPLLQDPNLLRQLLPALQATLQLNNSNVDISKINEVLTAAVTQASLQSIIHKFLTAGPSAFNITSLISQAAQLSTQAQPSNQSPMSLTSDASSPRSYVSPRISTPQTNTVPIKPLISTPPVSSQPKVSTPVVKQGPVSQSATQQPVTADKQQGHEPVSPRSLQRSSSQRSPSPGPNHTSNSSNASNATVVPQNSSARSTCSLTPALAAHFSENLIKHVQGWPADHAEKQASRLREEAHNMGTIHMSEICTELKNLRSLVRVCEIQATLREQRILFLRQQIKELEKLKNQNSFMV

[7] = target: T4, cysteines in MDA-MB-231 and Ramos cells (Homo sapiens, UniProt P46734)
T4 sequence (P46734 1-347): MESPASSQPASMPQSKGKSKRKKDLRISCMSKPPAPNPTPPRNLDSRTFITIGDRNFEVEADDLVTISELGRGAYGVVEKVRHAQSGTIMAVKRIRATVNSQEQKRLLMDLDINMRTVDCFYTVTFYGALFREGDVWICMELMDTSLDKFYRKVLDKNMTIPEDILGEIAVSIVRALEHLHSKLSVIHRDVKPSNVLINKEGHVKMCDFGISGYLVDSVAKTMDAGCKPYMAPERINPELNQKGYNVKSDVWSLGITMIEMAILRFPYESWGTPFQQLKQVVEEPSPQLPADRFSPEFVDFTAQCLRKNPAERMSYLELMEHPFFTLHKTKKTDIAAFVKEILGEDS

SMILES: COc1ccc(C2CC(c3cccs3)=NN2C(=O)CCl)cc1 (centres unmarked) [compound 4]
- isoTOP-ABPP reactivity Q96HE7_C37 ERO1L ([1]; 100 μM in situ 231): 5.4
- isoTOP-ABPP reactivity Q96HE7_C241 ERO1L ([1]; 100 μM in situ 231): 3.0
- isoTOP-ABPP reactivity Q9NYL9_C132 TMOD3 ([2]; 100 μM in situ 231): 0.8
- isoTOP-ABPP reactivity Q14997_C1840 PSME4 ([3]; 100 μM in situ 231): 20.0
- isoTOP-ABPP reactivity P04406_C152 GAPDH ([4]; 100 μM in situ 231): 1.6
- isoTOP-ABPP reactivity O00299_C24 CLIC1 ([5]; 100 μM in situ 231): 20.0
- isoTOP-ABPP reactivity Q9BTA9_0553 WAC ([6]; 100 μM in situ 231): 17.8
- isoTOP-ABPP reactivity P46734_C207 MAP2K3 ([7]; 100 μM in situ 231): 0.6

SMILES: O=C(CCl)Nc1cccc2ncccc12 [compound 51]
- isoTOP-ABPP ratio Q96HE7_C241 ([1]; 200 μM, insitu, 231): 1.7
- isoTOP-ABPP ratio Q9NYL9_C132 ([2]; 200 μM, insitu, 231): 0.8
- isoTOP-ABPP ratio Q14997_C1840 [3]: 20.0
- isoTOP-ABPP ratio P04406_C152 ([4]; 200 μM, insitu, 231): 1.0
- isoTOP-ABPP ratio Q9BTA9_C553 [6]; 231: 1.2
- isoTOP-ABPP ratio P46734_C207 ([7]; 200 μM, insitu, 231): 0.7

SMILES: CC1CCc2ccccc2N1C(=O)CCl (centres unmarked) [compound 45]
- isoTOP-ABPP ratio Q96HE7_C37 ([1]; 200 μM, insitu, 231): 20.0
- isoTOP-ABPP ratio Q96HE7_C241 ([1]; 200 μM, insitu, 231): 2.1
- isoTOP-ABPP ratio Q9NYL9_C132 ([2]; 200 μM, insitu, 231): 0.9
- isoTOP-ABPP ratio P04406_C152 ([4]; 200 μM, insitu, 231): 20.0
- isoTOP-ABPP ratio Q9BTA9_C553 [6]; 231: 19.1
- isoTOP-ABPP ratio P46734_C207 ([7]; 200 μM, insitu, 231): 1.5

SMILES: O=C(CCl)NC(=O)NC12CC3CC(CC(C3)C1)C2 [compound 12]
- isoTOP-ABPP ratio Q96HE7_C241 ([1]; 200 μM, insitu, 231): 16.4
- isoTOP-ABPP ratio Q9NYL9_C132 ([2]; 200 μM, insitu, 231): 0.6
- isoTOP-ABPP ratio Q14997_C1840 [3]: 20.0
- isoTOP-ABPP ratio P04406_C152 ([4]; 200 μM, insitu, 231): 0.9
- isoTOP-ABPP ratio O00299_C24 ([5]; 200 μM, insitu, 231): 20.0
- isoTOP-ABPP ratio P46734_C207 ([7]; 200 μM, insitu, 231): 0.7

SMILES: O=C(CCl)N1CCN(S(=O)(=O)c2ccccc2F)CC1 [compound 10]
- isoTOP-ABPP ratio Q96HE7_C241 ([1]; 200 μM, insitu, 231): 2.0
- isoTOP-ABPP ratio Q14997_C1840 [3]: 20.0
- isoTOP-ABPP ratio P04406_C152 ([4]; 200 μM, insitu, 231): 1.0
- isoTOP-ABPP ratio P04406_C152 ([4]; 200 μM, insitu, ramos): 0.9
- isoTOP-ABPP ratio O00299_C24 ([5]; 200 μM, insitu, 231): 5.0
- isoTOP-ABPP ratio Q9BTA9_C553 [6]; 231: 20.0
- isoTOP-ABPP ratio P46734_C207 ([7]; 200 μM, insitu, 231): 0.8

SMILES: O=C(CCl)N1CCN(CC(=O)N2CCOCC2)CC1 [compound 29]
- isoTOP-ABPP ratio Q96HE7_C37 ([1]; 200 μM, insitu, ramos): 2.1
- isoTOP-ABPP ratio Q96HE7_C241 ([1]; 200 μM, insitu, ramos): 1.3
- isoTOP-ABPP ratio Q9NYL9_C132 ([2]; 200 μM, insitu, ramos): 0.9
- isoTOP-ABPP ratio P04406_C152 ([4]; 200 μM, insitu, ramos): 1.2
- isoTOP-ABPP ratio O00299_C24 ([5]; 200 μM, insitu, ramos): 1.1
- isoTOP-ABPP ratio Q9BTA9_C553 ([6]; ramos): 1.1

SMILES: CC(C)CCOCCNC(=O)CCl [compound 27]
- isoTOP-ABPP ratio Q96HE7_C241 ([1]; 200 μM, insitu, 231): 0.9
- isoTOP-ABPP ratio Q9NYL9_C132 ([2]; 200 μM, insitu, 231): 0.6
- isoTOP-ABPP ratio Q14997_C1840 [3]: 20.0
- isoTOP-ABPP ratio P04406_C152 ([4]; 200 μM, insitu, 231): 0.5
- isoTOP-ABPP ratio O00299_C24 ([5]; 200 μM, insitu, 231): 0.7
- isoTOP-ABPP ratio P46734_C207 ([7]; 200 μM, insitu, 231): 0.8

SMILES: O=C(CCl)N1CCC(Cc2ccccc2)CC1 [compound 9]
- isoTOP-ABPP reactivity Q96HE7_C37 ERO1L ([1]; 200 μM, insitu, 231): 20.0
- isoTOP-ABPP reactivity Q9NYL9_C132 TMOD3 ([2]; 200 μM, insitu, 231): 7.6
- isoTOP-ABPP reactivity P04406_C152 GAPDH ([4]; 200 μM, insitu, 231): 1.7
- isoTOP-ABPP reactivity O00299_C24 CLIC1 ([5]; 200 μM, insitu, 231): 3.0
- isoTOP-ABPP reactivity P46734_C207 MAP2K3 ([7]; 200 μM, insitu, 231): 3.3
